These results are taken from PMC11952846, “The sterol-regulating human ARV1 binds cholesterol and phospholipids through its conserved ARV1 homology domain” (The Journal of Biological Chemistry, 2025).

In one test the target is T1, GST-ARV1-N98 K54/K59A (Homo sapiens, UniProt Q9H2C2, K54A/K59A).
T1 construct: Expresses amino-terminal 98 amino acids of ARV1; made in house; host or cells: E. coli BL21 (pGEX-4T1)
In words: Liposome binding assay, site-directed mutant. As to conditions: PC:PL, sulfatide liposomes.

The next test has as its target T2, GST-ARV1-N98 N94Q (Homo sapiens, UniProt Q9H2C2, N94Q).
T2 construct: Expresses amino-terminal 98 amino acids of ARV1; made in house; host or cells: E. coli BL21 (pGEX-4T1)
In words: Liposome binding assay, site-directed mutant. As to conditions: PI(4)P liposomes.

T1 sequence (Q9H2C2 1-98 K54A/K59A): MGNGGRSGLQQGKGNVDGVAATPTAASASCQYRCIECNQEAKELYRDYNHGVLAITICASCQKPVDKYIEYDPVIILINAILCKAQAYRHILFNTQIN
T2 sequence (Q9H2C2 1-98 N94Q): as the sequence (Q9H2C2 1-98 K54A/K59A) above, with A54K, A59K, N94Q counted along it

`CCCCCCCC/C=C\CCCCCCCC(=O)OC[C@H](COP(=O)(O)OCC(O)CO)OC(=O)CCCCCCC/C=C\CCCCCCCC` (some centres unmarked) [PG, phosphatidylglycerol]: at GST-ARV1-N98 K54/K59A, the liposome binding entry is reported as “unable to bind”. Regarding `CCCCCC(=O)O[C@H](COC(=O)CCCCCNC(=O)CCCC[C@@H]1SC[C@@H]2NC(=O)N[C@@H]21)COP(=O)(O)O[C@H]1[C@H](O)[C@@H](O)[C@H](OP(=O)(O)O)[C@@H](O)[C@H]1O` [reference compound], the liposome binding entry at GST-ARV1-N98 N94Q is recorded as “lost the ability to bind”.
